Measurements taken from patent US20210017555A1, “METHOD FOR PRODUCING 4-AMINOCINNAMIC ACID, AND VECTOR AND HOST CELL USED IN SAME” (JAPAN SCIENCE AND TECHNOLOGY AGENCY, priority 2018, published 2021).

How the values were obtained:
[1] = Deammonase activity of purified enzymes by absorptiometry; format: biochemical; details: purified recombinant enzyme 2 mg/mL, 50 mM Tris-HCl pH 8.6, 0.3 to 9.6 mM substrate, 380 nm, 10 minutes
Method: • Apparatus: BECKMAN COULTER DU800 UV/Vis Spectrophotometer • Amount of enzyme: 2mg/mL • Buffer solution: 50mM Tris-HCl buffer (pH=8.6) • Concentration of substrate: 0.3mM to 9.6mM • Volume: 200μL • Measurement wavelength: From 4-nitrophenylalanine to 380 nm 4-nitrocinnamic acid: From phenylalanine to 305 nm cinnamic acid: • Measurement period: 10 minutes • Measurement temperature: 25° C.
Each of the CamPAL-, LiePAL-, and RgPAL-producing Escherichia coli strains was inoculated to 5 mL of LB medium containing 30 mg/L kanamycin sulfate, and cultured at 28° C. for 16 hours (hereinafter also may be referred to as “preculture”). […]
The enzyme activity was measured and quantified by measuring the absorbance of the reaction product at the absorption wavelength for 10 minutes using an absorptiometer.
Specifically, regarding the deammonase activity for phenylalanine, 2 mg/mL of each of the above enzymes was added to 50 mM Tris-HCl buffer (pH=8.6) containing 0.3 to 9.6 mM phenylalanine to cause reaction, and the change in absorbance at a wavelength of 305 nm resulting from the formation of cinnamic acid was measured for 10 minutes. […]

[2] = Resting-cell reaction of PAL-producing E. coli, 4-nitrophenylalanine to 4-nitrocinnamic acid; format: cell-based, Escherichia coli; details: resting cells; for amount of 4-nitrocinnamic acid in the reaction supernatant: 24 hours, 28° C., pH 8.5, 20 mM 4-nitrophenylalanine, versus control Escherichia coli
Method: The CamPAL-, LiePAL-, and RgPAL-producing Escherichia coli strains mentioned above were precultured using 3 mL of LB medium containing 40 mg/L kanamycin sulfate at 28° C. for 16 hours with stirring at 300 rpm. 1 mL of this pre-cultured liquid was inoculated to 100 mL of LB medium containing 40 mg/L of kanamycin sulfate, cultured at 30° C. for 4 hours with shaking at 120 rpm, and after the addition of 0.5 mM of IPTG, incubated further for 20 hours. The obtained bacterial cells were washed twice with a reaction buffer (100 mM Tris-HCl buffer, pH 8.5).
The resting cells obtained were suspended in a reaction buffer and reacted at 28° C. with shaking at 300 rpm. 20 mM of 4-nitrophenylalanine was added to the medium every 24 hours while the reaction was continued. The reaction supernatant was periodically collected to quantify 4-nitrophenylalanine and 4-nitrocinnamic acid.
The supernatant was transferred to a centrifuge tube, collected by centrifugation, and the reaction product was quantified using high performance liquid chromatography (HPLC).
The same experiment was also performed using the host Escherichia coli as a control.

[3] = Conversion efficiency by CamPAL at different bacteria mass and substrate mass (resting cells); format: cell-based, Escherichia coli; details: cell mass 20 g/L or 30 g/L, substrate mass 21 g/L, 37° C., pH 8.5, 24 hours
Method: The CamPAL-producing Escherichia coli strain described in Example 1 was precultured using 5 mL of LB medium containing 40 mg/L kanamycin sulfate at 28° C. for 16 hours with stirring at 300 rpm. 1 mL of this pre-cultured solution was inoculated to 100 mL of TB medium having the following composition after the addition of 80 mg/L kanamycin sulfate, and cultured at 30° C. for 4 hours with shaking at 120 rpm. After the addition of 0.1 mM of IPTG, the cells were further cultured for 20 hours, recovered from the culture solution by centrifugation, and stored at −80° C. The frozen cells thus obtained were weighed at 10 g/L, 20 g/L and 30 g/L, while the substrate 4-nitrophenylalanine was also weighed at 4.2 g/L, 21 g/L, and 42 g/L.
Each mass of the cells and each mass of the substrate were suspended in a reaction buffer (100 mM Tris-HCl buffer, pH 8.5), and a resting microbial cell reaction was carried out at 37° C. with stirring at 300 rpm. After the reaction for 24 hours, the reaction solution was collected, and the amounts of 4-nitrophenylalanine and 4-nitrocinnamic acid were quantified. For the quantification of each reaction product, the supernatant of the obtained (bacterial cell) reaction solution was transferred to a centrifuge tube, collected by centrifugation, and the reaction product was quantified using the HPLC mentioned above.

[4] = Conversion of 4-nitrophenylalanine to 4-nitrocinnamic acid in 2 L jar fermenter; format: cell-based, Escherichia coli; details: 24 hours
Method: The CamPAL-producing Escherichia coli strain described in Example 1 was used (cell mass: 20 g/L to 30 g/L) was used in a reaction of converting the substrate 4-nitrophenylalanine (group weight 21 g/L) to 4-nitrocinnamic acid, using a 2 L jar fermenter (BNR-C-2LS manufactured by Maruhishi Bio Engineering Co., Ltd.) as a reactor.
Specifically, the CamPAL-producing Escherichia coli strain was precultured using 15 mL of LB medium with […] kanamycin sulfate at 28° C. for 16 hours with stirring at 300 rpm. 12 mL of this preculture liquid was inoculated to a 2 L jar fermenter containing 1.2 L TB medium with 80 mg/L kanamycin sulfate, and cultured at 30° C. for 4 hours with aeration of 3.5 L/min and stirring at 500 rpm. […] The mass of bacterial cells calculated from the value of OD600 was 30 g/L.
After completion of the culture, 21 g/L of 4-nitrophenylalanine was added to the culture medium as the substrate, and the pH was adjusted to 8.5 using a 2N NaOH aqueous solution. […] The reaction solution was collected during the reaction, and 4-nitrophenylalanine and 4-nitrocinnamic acid were quantified as follows: the reaction solution was transferred to a centrifuge tube, the supernatant was recovered by centrifugation, and the reaction product was quantified using HPLC under the above conditions.

[5] = Search for carbon source for conversion of 4-nitrocinnamic acid to 4-aminocinnamic acid; format: cell-based, Escherichia coli; details: glycerol added at 10% (compared with glucose, fructose), 2 g/L 4-nitrocinnamic acid, pH 8, 37° C., 24 hours
Method: The CamPAL-producing Escherichia coli strain described in Example 1 was first precultured for 16 hours in the same manner as in Example 2. 1 mL of this pre-cultured liquid was inoculated to 100 mL of TB medium containing 80 mg/L kanamycin sulfate, cultured at 30° C. for 4 hours with stirring at 120 rpm, and after the addition of 0.1 mM IPTG, cultured further for 16 hours. 2 g/L of 4-nitrocinnamic acid was added to the resultant culture solution, the pH was adjusted to 8 using 2N NaOH, and glucose, fructose, or glycerol was added as a carbon source at a final concentration of 10%. The cells were cultured at 37° C. for 24 hours with stirring at 300 rpm to cause reaction.
During the reaction, the reaction solution was collected, and 4-aminocinnamic acid was quantified. Specifically, the reaction solution was transferred to a centrifuge tube, the supernatant was recovered by centrifugation, and the reaction product was quantified using the HPLC.

[6] = Conversion of 4-nitrophenylalanine to 4-aminocinnamic acid in 1 L jar fermenter; format: cell-based, Escherichia coli; details: glycerol 10%, pH 8.5, 37° C., 36 hours, air flow 0.02 L/min
Method: Conversion of 4-nitrophenylalanine to 4-aminocinnamic acid was carried out using a 1 L jar fermenter (manufactured by Biott: BMJ-01), in the presence of glycerol under the conditions mentioned above. Specifically, 5 mL of the preculture liquid of Example 2 was inoculated to a 1 L jar fermenter containing 0.5 L of TB medium supplemented with 80 mg/L kanamycin sulfate, and cultured at 30° C. for 4 hours, with aeration at 0.7 L/min and stirring at 645 rpm. 0.1 mM IPTG was then added, and the culturing was continued for another 20 hours.
After the completion of the culturing, 7 g/L of 4-nitrophenylalanine and glycerol at a final concentration of 10% were added to the culture solution, and the pH was adjusted to 8.5 with 2N NaOH. The reaction was carried out at 37° C. for 36 hours with an air flow rate of 0.02 L/min and stirring at 645 rpm. When the pH dropped below 8.0, 2N NaOH was added. During the reaction, the reaction solution was sampled, and 4-nitrophenylalanine, 4-nitrocinnamic acid and 4-aminocinnamic acid were quantified.

Substance	capacity to convert 4-nitrophenylalanine to 4-nitrocinnamic acid [1]	conversion of 4-nitrophenylalanine to 4-nitrocinnamic acid over time ([2]; 20 mM 4-nitrophenylalanine added every 24 hours)	amount of 4-nitrocinnamic acid in the reaction supernatant [2]	conversion efficiency of 4-nitrophenylalanine to 4-nitrocinnamic acid (yield) [3]	4-nitrocinnamic acid converted from 21 g/L of 4-nitrophenylalanine ([4]; 2 L jar fermenter, cell mass 30 g/L, pH 8.5, 37° C., without aeration)	4-nitrocinnamic acid converted from 21 g/L of 4-nitrophenylalanine ([4]; same reaction, aeration rate 0.04 L/min)	amount of 4-aminocinnamic acid obtained [5]	4-aminocinnamic acid produced from 7 g/L of 4-nitrophenylalanine [6]
CamPAL: phenylalanine ammonia-lyase derived from Camellia sinensis, SEQ ID NO: 1, expressed in E. coli BL21(DE3)	have a capacity to covert 4-nitrophenylalanine to 4-nitrocinnamic acid	proceeded continuously	significantly higher than that of the control Escherichia coli	≥ 60%	18 g/L	12 g/L	largest amount of 4-aminocinnamic acid was obtained when glycerol was added	4.7 g/L
LiePAL: phenylalanine ammonia-lyase derived from Lithospermum erythrorhizon, SEQ ID NO:3, expressed in E. coli	have a capacity to covert 4-nitrophenylalanine to 4-nitrocinnamic acid		significantly higher than that of the control Escherichia coli					
